In US20260102472A1, “SEMAGLUTIDE IN MEDICAL THERAPY” (Novo Nordisk A/S, priority 2023, published 2026):

Key:
[1] = tested on: hospitalisation for heart failure; conditions: 0.5 mg or 1.0 mg subcutaneous once weekly, compared to placebo; cited from earlier work
[2] = tested on: human subjects with obesity-related heart failure with preserved ejection fraction; assay: Randomised, double-blind, placebo-controlled clinical trial of semaglutide in obesity-related HFpEF (Example 1); assay type: in vivo; conditions: for Time to first HF event from randomisation leading to either hospitalisation or an urgent visit, Hazard ratio: Semaglutide 2.4 mg/placebo; for Observed KCCQ-CSS mean change from baseline: 2.4 mg once weekly subcutaneously
Description: The Kansas City Cardiomyopathy Questionnaire (KCCQ) is a disease-specific health status instrument composed of 23 items that quantify the domains of physical limitation, symptoms, self-efficacy, social limitation, and health-related quality of life limitation from heart failure (available via cvoutcomes.org). The questions of the KCCQ are as published in the appendix of Green et al., JACC 2000; 35 (5): 1245-55:
The Kansas City Cardiomyopathy Questionnaire clinical summary score (KCCQ-CSS) is used for interpretation of the KCCQ and scores range from 0 to 100 where higher scores indicate better function. KCCQ-CSS is calculated as the mean of the available summary scores Physical Limitation Score and Total Symptom Score from the KCCQ. […] “Total Symptom Score” is calculated as the mean of the available summary scores Symptom Frequency Score and Symptom Burden Score. “Symptom Frequency Score” is calculated, if answer to at least two of Questions 3, 5, 7 and 9 are not missing, as 100*(mean of S3, S5, S7 and S9 answered), where S3=[(Question 3)−1]/4, S5=[(Question 5)−1]/6, S7=[(Question 7)−1]/6, and S9=[(Question 9)−1]/4; answers to Question 3 are scored as follows: Every morning=1, 3 or more times a week but not every day=2, 1-2 times a week=3, Less than once a week=4, Never over the past 2 weeks=5; answers to Questions 5 and 7 are scored as follows: All of the time=1, Several times a day=2, At least once a day=3, 3 or more times a week but not every day=4, 1-2 times a week=5, Less than once a week=6, or Never over the past 2 weeks=7; and answers to Question 9 are scored as follows: Every night=1, 3 or more times a week but not every day=2, 1-2 times a week=3, Less than once a week=4, or Never over the past 2 weeks=5. “Symptom Burden Score” is calculated, if answer to at least one of Questions 4, 6 and 8 is not missing, as 100*[(mean of Questions 4, 6 and 8 answered)−1]/4 where answers are scored as follows: Extremely bothersome=1, Quite a bit bothersome=2, Moderately bothersome=3, Slightly bothersome=4, Not at all bothersome=5, or I've had no swelling/fatigue/shortness of breath=5. The term “mean of questions answered” as used herein refers to that for a scale with n in questions where the subject must answer m to score the scale, but the subject answers only n-i, where n-i>=m, then the mean of those questions is calculated as (sum of answers to those n-i questions)/(n-i).
The six minute walk test (6MWT) is a determination of the distance a subject is able to walk over a period of six minutes where the subject traverses, at its own pace and resting as needed, back and forth along a marked walkway of 20 meters with the goal of walking as far as possible without running. The distance obtained from 6MWT is referred to as the six minute walk distance (6MWD). The 6MWT is a direct and timed measure of walking ability, which is technically simple and reproducible.
Heart failure exists in different degrees of severity. The most commonly used classification system of heart failure is the New York Heart Association Functional Classification (also referred to as “NYHA”). NYHA categorises subjects in one of four classes I-IV (Table A), based on their degree of limitation during physical activity, and optionally an additional subgroup A-D based on objective assessments, for further details see The Criteria Committee of the New York Heart Association. Nomenclature and Criteria for Diagnosis of Diseases of the Heart and Great Vessels. 9th ed. Boston, Mass: Little, Brown & Co; 1994:253-256.
A randomised, double-blind, international multicentre, placebo-controlled clinical trial with semaglutide was carried out with 529 human subjects with obesity-related heart failure with preserved ejection fraction. Key inclusion criteria were body mass index (BMI) of at least 30 kg/m^2, NYHA Class II-IV, and LVEF of at least 45% at time of screening for the clinical trial. […]

[3] = pair-wise comparisons vs. placebo, 2.4 mg
[4] = week 52, 2.4 mg once weekly vs. placebo
[5] = week 52, 2.4 mg once weekly vs. placebo, listed as semaglutide
[6] = week 52, 2.4 mg once weekly, ANCOVA estimate

In the case of “N-epsilon26-[2-(2-{2-[2-(2-{2-[(S)-4-Carboxy-4-(17-carboxyheptadecanoyl-amino) butyrylamino]ethoxy}ethoxy) acetylamino]ethoxy}ethoxy) acetyl] [Aib8,Arg34] GLP-1-(7-37) [Semaglutide]”, the “Hospitalisation for heart failure, hazard ratio (95% confidence interval)” value [1] is listed as 1.11 (0.77−1.61), the Inflammation ([2]; HFpEF and obesity, no data given) is listed as “reduced inflammation” and the “Time to first HF event from randomisation leading to either hospitalisation or an urgent visit, Hazard ratio” value [2] is listed as 0.08. The “Time to first HF event from randomisation leading to either hospitalisation or an urgent visit, Hazard ratio” value ([2]; listed as semaglutide) was “risk of experiencing a heart failure event was less”, the “Patients improved or with no change in NYHA class compared with placebo” value ([2]; baseline to 52 weeks) was “more patients treated with semaglutide improved or observed no change in NYHA class” and the “More wins on semaglutide as compared to placebo” value ([2]; hierarchical composite endpoint) was 72%. The “Hierarchical composite endpoint, Loss: All-cause death” value [2, 3] was 1.1%, the “Hierarchical composite endpoint, Loss: Change in 6MWD ≥30 meters difference” value [2, 3] was 3.7% and the “Hierarchical composite endpoint, Loss: Change in KCCQ-CSS ≥5 points difference” value [2, 3] was 7.0%. The “Hierarchical composite endpoint, Loss: Change in KCCQ-CSS ≥10 points difference” value [2, 3] was 5.6%, the “Hierarchical composite endpoint, Loss: Change in KCCQ-CSS ≥15 points difference” value [2, 3] was 17.5% and the “Hierarchical composite endpoint, Loss: Number of HF events” value [2, 3] was 0.0%. The “Hierarchical composite endpoint, Loss: Time-to-first HF event” value [2, 3] was 0.0%, the “Hierarchical composite endpoint, Loss: Total” value [2, 3] was 34.9% and the “Hierarchical composite endpoint, Proportion of ties” value [2, 3] was “Proportion of ties: 5.1%”. The “Hierarchical composite endpoint, Wins: All-cause death” value [2, 3] was 1.5%, the “Hierarchical composite endpoint, Wins: Change in 6MWD ≥30 meters difference” value [2, 3] was 6.3% and the “Hierarchical composite endpoint, Wins: Change in KCCQ-CSS ≥5 points difference” value [2, 3] was 8.2%. The “Hierarchical composite endpoint, Wins: Change in KCCQ-CSS ≥10 points difference” value [2, 3] was 7.2%, the “Hierarchical composite endpoint, Wins: Change in KCCQ-CSS ≥15 points difference” value [2, 3] was 33.7% and the “Hierarchical composite endpoint, Wins: Number of HF events” value [2, 3] was 3.3%. The “Hierarchical composite endpoint, Wins: Time-to-first HF event” value [2, 3] was 0.0%, the “Hierarchical composite endpoint, Wins: Total” value [2, 3] was 60.1% and the “Observed body weight (%) mean change from baseline” value ([2]; week 0, 2.4 mg once weekly) was 0%. For the same substance, the “Observed six minutes walk distance mean change from baseline” value ([2]; week 0, 2.4 mg once weekly) was 0 meters, the “Observed KCCQ-CSS mean change from baseline” value (shortened to “Observed KCCQ-CSS mean change”) ([2]; week 0) was 0 and the “Observed body weight (%) mean change from baseline” value ([2]; week 4, dose escalation to 2.4 mg once weekly) was −2.1%. The “Observed body weight (%) mean change from baseline” value ([2]; week 8, dose escalation to 2.4 mg once weekly) was −3.2%, the “Observed body weight (%) mean change from baseline” value ([2]; week 12, dose escalation to 2.4 mg once weekly) was −5.0% and the “Observed body weight (%) mean change from baseline” value ([2]; week 16, dose escalation to 2.4 mg once weekly) was −6.6%. The “Observed body weight (%) mean change from baseline” value ([2]; week 20, 2.4 mg once weekly) was −7.8%, the “Observed six minutes walk distance mean change from baseline” value ([2]; week 20, 2.4 mg once weekly) was 14.3 meters and the “Observed KCCQ-CSS mean change” value ([2]; week 20) was 11.0. For the same substance, the “Observed body weight (%) mean change from baseline” value ([2]; week 28, 2.4 mg once weekly) was −10.2%, the “Observed body weight (%) mean change from baseline” value ([2]; week 36, 2.4 mg once weekly) was −12.1% and the “Observed KCCQ-CSS mean change” value ([2]; week 36) was 15.0. For the same substance, the “Observed body weight (%) mean change from baseline” value ([2]; week 44, 2.4 mg once weekly) was −12.9%, the “NYHA class from baseline to week 52: Improvement” value ([2]; week 52, 2.4 mg once weekly) was 36.4% and the “NYHA class from baseline to week 52: No change” value ([2]; week 52, 2.4 mg once weekly) was 61.7%. For the same substance, the “NYHA class from baseline to week 52: Worsening” value ([2]; week 52, 2.4 mg once weekly) was 2.0%, the “Observed body weight (%) mean change from baseline” value ([2]; week 52, 2.4 mg once weekly) was −13.9% and the “Observed proportion improving ≥5 points from baseline in KCCQ-CSS” value ([2]; week 52, 2.4 mg once weekly) was 75%. For the same substance, the “Observed proportion improving ≥10 points from baseline in KCCQ-CSS” value ([2]; week 52, 2.4 mg once weekly) was 63%, the “Observed six minutes walk distance mean change from baseline” value ([2]; week 52, 2.4 mg once weekly) was 23.5 meters and the “Observed KCCQ-CSS mean change” value ([2]; week 52) was 16.8. The “Body weight (%) change from baseline to week 52, Treatment difference vs. placebo” value [2, 4] was −10.7%, the “Improvement of ≥5 points in KCCQ-CSS, Treatment Odds ratio vs. placebo” value [2, 4] was 1.88 and the “Improvement of ≥10 points in KCCQ-CSS, Treatment Odds ratio vs. placebo” value [2, 4] was 2.10. For the same substance, the “KCCQ-CSS change from baseline to week 52, Treatment difference vs. placebo” value [2, 4] was 7.8 score, the “Six minutes walk distance change from baseline to week 52, Treatment difference vs. placebo” value [2, 4] was 20.3 meters and the “Body weight (%) change from baseline to week 52, Treatment difference vs. placebo” value [2, 5] was “significantly larger body weight loss”. For the same substance, the “KCCQ-CSS change from baseline to week 52, Treatment difference vs. placebo” value [2, 5] was “significantly larger improvement in KCCQ-CSS”, the “Six minutes walk distance change from baseline to week 52, Treatment difference vs. placebo” value [2, 5] was “significantly larger improvement in six minutes walk distance” and the “Body weight (%) change from baseline to week 52, Estimate” value [2, 6] was −13.3%. For the same substance, the “KCCQ-CSS change from baseline to week 52, Estimate” value [2, 6] was 16.6 score and the “Six minutes walk distance change from baseline to week 52, Estimate” value [2, 6] was 21.5 meters.
